Measurements from ChEMBL document CHEMBL4118066, “QSAR-driven design, synthesis and discovery of potent chalcone derivatives with antitubercular activity” (Eur J Med Chem, 2017).
Values after ≈ are worked out from the molar mass of the structure shown.

Columns and labels:
Staphylococcus aureus = assay: Antibacterial activity against Staphylococcus aureus ATCC 29213 after 16 to 20 hrs; format: functional
Mycobacterium marinum = assay: Antimycobacterial activity against Mycobacterium marinum ATCC 927 after 7 days under normoxic condition by microplate Alamar blue assay; format: functional; conditions: ATCC 927, 168 h
Mycobacteroides chelonae = assay: Antimycobacterial activity against Mycobacterium chelonae ATCC 35752 after 7 days under normoxic condition by microplate Alamar blue assay; format: functional; conditions: ATCC 35752, 168 h
[1] = system: Mycobacterium tuberculosis; assay: microbe, parasite or virus in culture; format: functional; conditions: H37Rv ATCC 27294, 168 h
Description: Antitubercular activity against Mycobacterium tuberculosis H37Rv ATCC 27294 after 7 days under normoxic condition by microplate Alamar blue assay

[2] = system: Mycobacterium tuberculosis; assay: Antitubercular activity against Mycobacterium tuberculosis H37Rv ATCC 27294 treated for 10 days under hypoxic condition followed by 28 hrs of normoxic recovery; format: functional
[3] = system: Mycolicibacterium smegmatis; assay: Antimycobacterial activity against Mycobacterium smegmatis ATCC MC2155 after 7 days under normoxic condition by microplate Alamar blue assay; format: functional; conditions: str. MC2 155, 168 h
Mycobacterium kansasii = assay: Antimycobacterial activity against Mycobacterium kansasii ATCC 12478 after 7 days under normoxic condition by microplate Alamar blue assay; format: functional; conditions: ATCC 12478, 168 h
in vitro = conditions: monkey, Vero cells
Description: Selectivity index, ratio of IC50 for African green monkey Vero cells to MIC90 for Mycobacterium tuberculosis H37Rv ATCC 27294 under normoxic condition

[4] = system: Mycobacteroides abscessus; assay: Antimycobacterial activity against Mycobacterium abscessus ATCC 19977 after 7 days under normoxic condition by microplate Alamar blue assay; format: functional; conditions: ATCC 19977, 168 h
Mycobacterium avium = assay: Antimycobacterial activity against Mycobacterium avium ATCC 15769 after 7 days under normoxic condition by microplate Alamar blue assay; format: functional; conditions: ATCC 15769, 168 h
Escherichia coli = assay: Antibacterial activity against Escherichia coli ATCC 25922 after 16 to 20 hrs; format: functional
Candida albicans = assay: Antifungal activity against Candida albicans ATCC 90028 after 36 to 48 hrs; format: functional

| Compound | MIC90 (Staphylococcus aureus) [µM] | MIC90 (Mycobacterium marinum) [µM] | MIC90 (Mycobacteroides chelonae) [µM] | MIC90 [1] [µM] | MIC90 [2] [µM] | MIC90 [3] [µM] | MIC90 (Mycobacterium kansasii) [µM] | selectivity ratio (in vitro) | MIC90 [4] [µM] | MIC90 (Mycobacterium avium) [µM] | MIC90 (Escherichia coli) [µM] | MIC90 (Candida albicans) [µM] |
| --- | --- | --- | --- | --- | --- | --- | --- | --- | --- | --- | --- | --- |
| O=C(/C=C/c1ccc([N+](=O)[O-])o1)c1ccc(I)cc1 | > 10 | > 10 | > 10 | 0.6 (≈ 0.221 µg/mL) | 4.12 (≈ 1.52 µg/mL) | 4.62 (≈ 1.71 µg/mL) | 0.59 (≈ 0.218 µg/mL) | 166 | > 10 | 2.38 (≈ 0.878 µg/mL) | > 10 | > 10 |
| CSc1ccc(C(=O)/C=C/c2ccc([N+](=O)[O-])o2)cc1 | 0.58 (≈ 0.168 µg/mL) | > 10 | 4.66 (≈ 1.35 µg/mL) | 0.66 (≈ 0.191 µg/mL) | 5.07 (≈ 1.47 µg/mL) | 4.81 (≈ 1.39 µg/mL) | 0.3 (≈ 0.0868 µg/mL) | 61 | > 10 | 1.39 (≈ 0.402 µg/mL) | > 10 | > 10 |
| CSc1ccc(C(=O)/C=C/c2ccc([N+](=O)[O-])s2)cc1 | > 10 | > 10 | > 10 | 0.45 (≈ 0.137 µg/mL) | 5.96 (≈ 1.82 µg/mL) | > 10 | 3.86 (≈ 1.18 µg/mL) | 222 | > 10 | 6.89 (≈ 2.1 µg/mL) | > 10 | > 10 |
| O=C(/C=C/c1ccc([N+](=O)[O-])o1)c1cccc(Br)c1 | 1.68 (≈ 0.541 µg/mL) | > 10 | > 10 | 1.32 (≈ 0.425 µg/mL) | 5.65 (≈ 1.82 µg/mL) | 4.84 (≈ 1.56 µg/mL) | 1.65 (≈ 0.531 µg/mL) | 52 | > 10 | 2.95 (≈ 0.95 µg/mL) | > 10 | > 10 |
| Cc1ccccc1C(=O)/C=C/c1ccc([N+](=O)[O-])o1 | 1.09 (≈ 0.28 µg/mL) | > 10 | > 10 | 0.57 (≈ 0.147 µg/mL) | 4.59 (≈ 1.18 µg/mL) | 9.5 (≈ 2.44 µg/mL) | 1.16 (≈ 0.298 µg/mL) | 41 | > 10 | 3.04 (≈ 0.782 µg/mL) | > 10 | 6.36 (≈ 1.64 µg/mL) |
| COc1ccc(/C=C/C(=O)c2cccc(Br)c2)cc1 | > 10 | > 10 | > 10 | 8.54 (≈ 2.71 µg/mL) | 8.2 (≈ 2.6 µg/mL) | > 10 | 9.21 (≈ 2.92 µg/mL) | 11 | > 10 | 9.82 (≈ 3.11 µg/mL) | > 10 | > 10 |
| CCCCc1ccc(C(=O)/C=C/c2ccc([N+](=O)[O-])o2)cc1 | 2.23 (≈ 0.667 µg/mL) | > 10 | > 10 | 1.31 (≈ 0.392 µg/mL) | 4.21 (≈ 1.26 µg/mL) | > 10 | 0.58 (≈ 0.174 µg/mL) | 57 | > 10 | 3.07 (≈ 0.919 µg/mL) | > 10 | > 10 |
| CCCCc1ccc(C(=O)/C=C/c2ccc([N+](=O)[O-])s2)cc1 | > 10 | > 10 | > 10 | 0.54 (≈ 0.17 µg/mL) | 5.56 (≈ 1.75 µg/mL) | > 10 | 1.73 (≈ 0.546 µg/mL) | 81 | > 10 | 2.14 (≈ 0.675 µg/mL) | > 10 | > 10 |
